The values below come from ChEMBL document CHEMBL1201862, “PubChem BioAssay data set” (2004).

Molecules are shown by their SMILES.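 Dose response: 5 concentrations. Exposure: 48 h. Format: 96-well plates. Endpoint: linear interpolation; highest concentration if not reached. Here, GI50 denotes the concentration required for 50% inhibition of growth.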 The source made the active and inactive calls. No stated cut-off is given here; in the data, active = GI50 up to about 1.1 µM and inactive = higher.

Some test systems named below: CAKI-1; MDA-MB-231; OVCAR-3; A498; SK-MEL-5; KM12; UACC-62; RPMI-8226; SF-268; NCI-H522; BT-549; SW-620; Hs-578T; UO-31; IGROV-1; K562; MDA-MB-435; EKVX.
Common to all, as to test: NCI tumour cell line growth inhibition, 48 h

As to `CC1=CCC(C)=Nc2nc3ccccc3n21`, the GI50 with CAKI-1, in the test with MDA-MB-231, with OVCAR-3, in the test on A498, with SK-MEL-5 and in the test with KM12 was > 100 µM (inactive) each time. The GI50 in the test on UACC-62, in the test with RPMI-8226, in the test on SF-268, with NCI-H522, with BT-549 and in the test with SW-620 was > 100 µM (inactive) throughout. Further, the GI50 is > 100 µM (inactive) with Hs-578T; 23.2 µM (inactive) with UO-31; > 100 µM (inactive) in the test on IGROV-1; > 100 µM (inactive) in the test with K562; > 100 µM (inactive) in the test with MDA-MB-435; > 100 µM (inactive) in the test on EKVX.
Regarding `C[C@H]1CN[C@@H]2[C@@H](C)[C@H]3[C@@H](C[C@H]4[C@@H]5CC[C@H]6C[C@@H](N)CC[C@]6(C)[C@H]5CC[C@]34C)O[C@@]2(O)C1`, the GI50 is 2.37 µM (inactive) with CAKI-1; 1.9 µM (inactive) in the test on MDA-MB-231; 2.03 µM (inactive) with OVCAR-3; 0.142 µM (active) in the test on A498; 3.04 µM (inactive) in the test with SK-MEL-5; 1.91 µM (inactive) in the test on KM12. For the same compound, the GI50 with UACC-62 was 1.95 µM (inactive); in the test on RPMI-8226, 2.28 µM (inactive); with SF-268, 1.5 µM (inactive); in the test with NCI-H522, 2.24 µM (inactive); in the test on BT-549, 2.19 µM (inactive); in the test with SW-620, 2.25 µM (inactive). Further, the GI50 in the test on Hs-578T was 1.91 µM (inactive); in the test on UO-31, 2.25 µM (inactive); in the test with IGROV-1, 2.15 µM (inactive); in the test with K562, 1.91 µM (inactive); in the test with MDA-MB-435, 1.6 µM (inactive); in the test on EKVX, 3.34 µM (inactive).
As for `CC(C)(OCc1ccccc1)c1ccccc1P(c1ccccc1)c1ccccc1`, the GI50 was 31.7 µM (inactive) in the test on CAKI-1; 65 µM (inactive) in the test with MDA-MB-231; 46.9 µM (inactive) with OVCAR-3; 89.3 µM (inactive) with A498; 35 µM (inactive) in the test on SK-MEL-5; 23.1 µM (inactive) in the test with KM12. For the same compound, the GI50 in the test on UACC-62 is 47.5 µM (inactive); in the test with RPMI-8226, 4.04 µM (inactive); in the test with SF-268, 83.8 µM (inactive); with NCI-H522, 42.8 µM (inactive); in the test with BT-549, 28.8 µM (inactive); with SW-620 it was 82.2 µM (inactive). The GI50 in the test on Hs-578T is 47.9 µM (inactive); in the test on UO-31, 87.7 µM (inactive); in the test on IGROV-1, 50.1 µM (inactive); in the test with K562, 45.3 µM (inactive); in the test on MDA-MB-435, 37.9 µM (inactive); in the test on EKVX, 32.9 µM (inactive).
As to `CN(C)CCCN1c2ccc(O)cc2Sc2ccc(Cl)cc21` [7-HYDROXYCHLORPROMAZINE], the GI50 in the test on CAKI-1 was 4.2 µM (inactive); in the test with MDA-MB-231, 10.9 µM (inactive); in the test on OVCAR-3, 11.8 µM (inactive); in the test with A498, 16.5 µM (inactive); in the test with SK-MEL-5, 13.8 µM (inactive); in the test with KM12, 10.5 µM (inactive). For the same compound, the GI50 was 9.91 µM (inactive) in the test on UACC-62; 4.5 µM (inactive) in the test with RPMI-8226; 6.34 µM (inactive) with SF-268; 11.4 µM (inactive) with NCI-H522; 12.4 µM (inactive) in the test with BT-549; 17.5 µM (inactive) with SW-620. The GI50 in the test with Hs-578T is 4.04 µM (inactive); in the test on UO-31 it was 9.53 µM (inactive); with IGROV-1, 9.84 µM (inactive); in the test with K562, 3.86 µM (inactive); in the test with MDA-MB-435, 8.91 µM (inactive); in the test on EKVX, 18.4 µM (inactive).
